According to article PMC12136037, “Type II kinase inhibitors that target Parkinson’s disease–associated LRRK2” (Science Advances, 2025):
Where two headings read alike, the source gives them in different places.

Tests used:
[1] = molecular target: T1, 350 wild-type kinases (Homo sapiens, UniProt O96017); assay: 33PanQinase kinome-wide selectivity profile (Reaction Biology); format: biochemical; conditions: kinase CHK2, ATP 1 µM, singlicate
T1 construct: purchased Reaction Biology (assay service)
Method: (§1) Compound RN341 was tested at two concentrations of 1 and 10 μM against a panel of 350 wild-type kinases in the ^33PanQinase assay. The assay was performed by Reaction Biology (www.reactionbiology.com/services/kinase-assays/kinase-panel-screening/).

[2] = molecular target: T2, 350 wild-type kinases (Homo sapiens, UniProt P27037); assay: as above; format: biochemical; conditions: kinase ACVR2A, ATP 3 µM, singlicate
T2 construct: purchased Reaction Biology (assay service)
Method: as §1

[3] = molecular target: T3, 350 wild-type kinases (Homo sapiens, UniProt Q8IWQ3); assay: as above; format: biochemical; conditions: kinase BRSK2, ATP 1 µM, singlicate
T3 construct: purchased Reaction Biology (assay service)
Method: as §1

[4] = molecular target: T4, CLK1 (Homo sapiens, UniProt P49759); assay: nanoBRET off-target validation; format: cell-based
T4 construct: host or cells: HEK293T (ATCC CRL-3216)
Method: (§2) The assay was performed as described previously ([61]). In brief, full-length kinases as listed in table S6 were obtained as plasmids cloned in frame with terminal NanoLuc-fusion (gift from Promega; table S6). […] Serially diluted inhibitor and corresponding tracer as listed in table S6 at the Tracer KD concentration taken from TracerDB (tracerdb.org) ([62]) were pipetted into white 384-well plates (Greiner, 781207) using an ECHO acoustic dispenser (Labcyte). The corresponding protein-transfected cells were added and reseeded at a density of 2 × 10^5 cells/ml after trypsinization and resuspending in Opti-MEM without phenol red (Life Technologies). The system was allowed to equilibrate for 3 hours at 37°C/5% CO2 before bioluminescence resonance energy transfer (BRET) measurements. To measure BRET, NanoBRET NanoGlo Substrate + extracellular NanoLuc Inhibitor (Promega, N2540) was added as per the manufacturer’s protocol, and filtered luminescence was measured on a PHERAstar plate reader (BMG Labtech) equipped with a luminescence filter pair [450-nm BP filter (donor) and 610-nm LP filter (acceptor)]. […] (For step-by-step protocol, see www.eubopen.org/sites/www.eubopen.org/files/attachments/2021/NanoBRET-IC50_v1_0.pdf.)

[5] = molecular target: T5, JNK2 (Homo sapiens, UniProt P45984); assay: nanoBRET off-target validation; format: cell-based; conditions: JNK2, two replicates
T5 construct: host or cells: HEK293T (ATCC CRL-3216)
Method: as §2

T4 sequence (P49759 whole entry): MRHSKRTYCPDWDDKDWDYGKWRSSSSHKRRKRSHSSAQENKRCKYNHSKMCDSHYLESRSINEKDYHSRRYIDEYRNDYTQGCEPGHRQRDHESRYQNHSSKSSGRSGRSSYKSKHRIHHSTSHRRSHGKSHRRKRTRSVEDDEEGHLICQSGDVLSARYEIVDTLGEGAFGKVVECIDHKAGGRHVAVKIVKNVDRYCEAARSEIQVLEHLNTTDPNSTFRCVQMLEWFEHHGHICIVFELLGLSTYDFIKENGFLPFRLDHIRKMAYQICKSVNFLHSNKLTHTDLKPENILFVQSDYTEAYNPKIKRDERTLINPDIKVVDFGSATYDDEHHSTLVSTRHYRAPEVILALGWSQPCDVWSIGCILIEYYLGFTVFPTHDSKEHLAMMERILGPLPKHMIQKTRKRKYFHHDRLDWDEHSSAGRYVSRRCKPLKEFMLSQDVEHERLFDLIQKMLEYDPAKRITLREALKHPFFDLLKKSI
T5 sequence (P45984 whole entry): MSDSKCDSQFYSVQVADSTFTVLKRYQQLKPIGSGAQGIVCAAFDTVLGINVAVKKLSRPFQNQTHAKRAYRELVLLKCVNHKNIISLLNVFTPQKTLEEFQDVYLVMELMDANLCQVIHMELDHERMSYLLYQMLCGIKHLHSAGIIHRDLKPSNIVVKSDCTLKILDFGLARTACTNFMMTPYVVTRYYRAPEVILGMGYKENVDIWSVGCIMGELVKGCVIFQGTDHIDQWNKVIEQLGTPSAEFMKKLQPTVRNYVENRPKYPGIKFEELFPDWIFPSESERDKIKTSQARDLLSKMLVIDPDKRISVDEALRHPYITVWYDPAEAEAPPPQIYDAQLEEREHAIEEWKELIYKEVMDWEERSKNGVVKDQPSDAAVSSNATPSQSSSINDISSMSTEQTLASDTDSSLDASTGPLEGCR
T3 sequence (Q8IWQ3 whole entry): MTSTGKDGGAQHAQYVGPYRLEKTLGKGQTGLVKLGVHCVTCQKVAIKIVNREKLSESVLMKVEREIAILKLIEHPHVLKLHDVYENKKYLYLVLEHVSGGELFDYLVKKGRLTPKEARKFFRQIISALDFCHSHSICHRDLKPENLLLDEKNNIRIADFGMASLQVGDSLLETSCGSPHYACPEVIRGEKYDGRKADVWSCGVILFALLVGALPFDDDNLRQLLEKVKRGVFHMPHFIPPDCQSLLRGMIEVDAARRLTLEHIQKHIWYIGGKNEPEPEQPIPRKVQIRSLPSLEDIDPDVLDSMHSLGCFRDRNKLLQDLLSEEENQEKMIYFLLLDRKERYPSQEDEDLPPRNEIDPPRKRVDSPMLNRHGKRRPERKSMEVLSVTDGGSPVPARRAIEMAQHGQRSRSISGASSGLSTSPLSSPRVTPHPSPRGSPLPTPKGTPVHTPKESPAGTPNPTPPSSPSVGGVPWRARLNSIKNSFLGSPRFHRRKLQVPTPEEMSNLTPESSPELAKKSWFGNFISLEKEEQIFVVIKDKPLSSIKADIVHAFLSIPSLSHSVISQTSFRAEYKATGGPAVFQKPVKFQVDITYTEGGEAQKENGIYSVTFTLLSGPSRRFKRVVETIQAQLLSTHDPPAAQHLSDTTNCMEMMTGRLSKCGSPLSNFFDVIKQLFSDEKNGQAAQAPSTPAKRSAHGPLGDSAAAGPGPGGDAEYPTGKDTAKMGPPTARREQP
T1 sequence (O96017 whole entry): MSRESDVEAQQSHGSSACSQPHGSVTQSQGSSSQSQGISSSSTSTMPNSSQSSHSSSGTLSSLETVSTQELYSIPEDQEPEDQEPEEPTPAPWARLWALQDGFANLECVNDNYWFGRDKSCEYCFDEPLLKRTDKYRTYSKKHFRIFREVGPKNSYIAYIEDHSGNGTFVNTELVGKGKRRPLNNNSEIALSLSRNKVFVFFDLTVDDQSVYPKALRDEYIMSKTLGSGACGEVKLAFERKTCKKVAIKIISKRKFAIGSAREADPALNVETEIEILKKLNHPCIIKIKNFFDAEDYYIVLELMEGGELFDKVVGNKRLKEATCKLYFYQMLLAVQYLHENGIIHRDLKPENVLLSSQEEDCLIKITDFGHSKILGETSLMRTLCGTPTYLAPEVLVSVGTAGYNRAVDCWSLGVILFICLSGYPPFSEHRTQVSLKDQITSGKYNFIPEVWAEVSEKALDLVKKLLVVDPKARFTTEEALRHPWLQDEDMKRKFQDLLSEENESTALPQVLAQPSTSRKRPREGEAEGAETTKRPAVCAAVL
T2 sequence (P27037 20-513): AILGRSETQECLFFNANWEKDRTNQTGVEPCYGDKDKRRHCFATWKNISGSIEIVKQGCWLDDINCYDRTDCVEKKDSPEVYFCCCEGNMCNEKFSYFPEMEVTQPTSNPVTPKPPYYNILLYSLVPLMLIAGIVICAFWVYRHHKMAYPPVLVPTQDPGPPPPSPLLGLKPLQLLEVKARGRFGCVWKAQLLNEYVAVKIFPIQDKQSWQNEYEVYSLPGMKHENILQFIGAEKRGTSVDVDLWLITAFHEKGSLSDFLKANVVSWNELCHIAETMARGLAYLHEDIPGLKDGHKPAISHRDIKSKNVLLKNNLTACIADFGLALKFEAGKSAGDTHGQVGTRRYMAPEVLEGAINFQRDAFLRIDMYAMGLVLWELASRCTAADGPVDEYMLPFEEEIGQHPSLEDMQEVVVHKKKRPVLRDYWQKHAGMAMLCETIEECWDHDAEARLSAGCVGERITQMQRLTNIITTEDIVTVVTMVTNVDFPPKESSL

For CCSc1nc(NC)c2c(-c3cccc(NC(=O)Nc4cc(C(C)(C)C)nn4-c4ccc(C)cc4)c3)c[nH]c2n1 [Compound 32], the “Residual activity (% of control), CHK2” value ([1]; Assay Conc. 1.0E-05 M) was 64 % of control, the “Residual activity (% of control), CHK2” value ([1]; Assay Conc. 1.0E-06 M) was 90 % of control and the “Residual activity (% of control), ACVR2A” value ([2]; Assay Conc. 1.0E-05 M) was 92 % of control. For the same molecule, the “Residual activity (% of control), ACVR2A” value ([2]; Assay Conc. 1.0E-06 M) was 102 % of control, the “Residual activity (% of control), BRSK2” value ([3]; Assay Conc. 1.0E-05 M) was 84 % of control and the “Residual activity (% of control), BRSK2” value ([3]; Assay Conc. 1.0E-06 M) was 103 % of control. For the same molecule, the EC50 [4] was 6 µM, the “nanoBRET response normalized to 0% (no tracer) and 100% (no inhibitor) control” value ([4]; CLK1, inhibitor 8 nM, two replicates, listed as RN341, 0.008 µM) was 96.3388% and the normalized NanoBRET tracer signal at 0.008 µM ([4]; CLK1, inhibitor 8 nM, two replicates, read-out: nanoBRET response normalized to 0% (no tracer) and 100% (no inhibitor) control) was 99.4%. For the same molecule, the “nanoBRET response normalized to 0% (no tracer) and 100% (no inhibitor) control” value ([4]; CLK1, inhibitor 16 nM, two replicates, listed as RN341, 0.016 µM) was 93.1575%, the normalized NanoBRET tracer signal at 0.016 µM ([4]; CLK1, inhibitor 16 nM, two replicates, read-out: nanoBRET response normalized to 0% (no tracer) and 100% (no inhibitor) control) was 93.9% and the “nanoBRET response normalized to 0% (no tracer) and 100% (no inhibitor) control” value ([4]; CLK1, inhibitor 50 nM, two replicates, listed as RN341, 0.05 µM) was 98.6143%. For the same molecule, the normalized NanoBRET tracer signal at 0.05 µM ([4]; CLK1, inhibitor 50 nM, two replicates, read-out: nanoBRET response normalized to 0% (no tracer) and 100% (no inhibitor) control) was 97.1%, the “nanoBRET response normalized to 0% (no tracer) and 100% (no inhibitor) control” value ([4]; CLK1, inhibitor 250 nM, two replicates, listed as RN341, […]) was 91.8848% and the normalized NanoBRET tracer signal at […] ([4]; CLK1, inhibitor 250 nM, two replicates, read-out: nanoBRET response normalized to 0% (no tracer) and 100% (no inhibitor) control) was 93.8%. For the same molecule, the “nanoBRET response normalized to 0% (no tracer) and 100% (no inhibitor) control” value ([4]; CLK1, inhibitor 500 nM, two replicates, listed as RN341, 0.5 µM) was 89.5722%, the normalized NanoBRET tracer signal at 0.5 µM ([4]; CLK1, inhibitor 500 nM, two replicates, read-out: nanoBRET response normalized to 0% (no tracer) and 100% (no inhibitor) control) was 87.8% and the “nanoBRET response normalized to 0% (no tracer) and 100% (no inhibitor) control” value ([4]; CLK1, inhibitor 2500 nM, two replicates, listed as RN341, […]) was 66.5911%. For the same molecule, the normalized NanoBRET tracer signal at […] ([4]; CLK1, inhibitor 2500 nM, two replicates, read-out: nanoBRET response normalized to 0% (no tracer) and 100% (no inhibitor) control) was 70.4%, the “nanoBRET response normalized to 0% (no tracer) and 100% (no inhibitor) control” value ([4]; CLK1, inhibitor 5000 nM, two replicates, listed as RN341, 5 µM) was 68.3349% and the normalized NanoBRET tracer signal at 5 µM ([4]; CLK1, inhibitor 5000 nM, two replicates, read-out: nanoBRET response normalized to 0% (no tracer) and 100% (no inhibitor) control) was 62%. The “nanoBRET response normalized to 0% (no tracer) and 100% (no inhibitor) control” value ([4]; CLK1, inhibitor 25000 nM, two replicates, listed as RN341, 25 µM) was 18.5705%, the normalized NanoBRET tracer signal at 25 µM ([4]; CLK1, inhibitor 25000 nM, two replicates, read-out: nanoBRET response normalized to 0% (no tracer) and 100% (no inhibitor) control) was 17.2% and the “nanoBRET response normalized to 0% (no tracer) and 100% (no inhibitor) control” value ([5]; inhibitor 8 nM, listed as RN341, 0.008 µM) was 97.2218%. The remaining activity at 0.008 µM ([5]; inhibitor 8 nM, read-out: nanoBRET response normalized to 0% (no tracer) and 100% (no inhibitor) control) was 103%, the “nanoBRET response normalized to 0% (no tracer) and 100% (no inhibitor) control” value ([5]; inhibitor 16 nM, listed as RN341, 0.016 µM) was 96.1223% and the remaining activity at 0.016 µM ([5]; inhibitor 16 nM, read-out: nanoBRET response normalized to 0% (no tracer) and 100% (no inhibitor) control) was 95.8%. For the same molecule, the “nanoBRET response normalized to 0% (no tracer) and 100% (no inhibitor) control” value ([5]; inhibitor 50 nM, listed as RN341, 0.05 µM) was 96.724%, the remaining activity at 0.05 µM ([5]; inhibitor 50 nM, read-out: nanoBRET response normalized to 0% (no tracer) and 100% (no inhibitor) control) was 91.7% and the “nanoBRET response normalized to 0% (no tracer) and 100% (no inhibitor) control” value ([5]; inhibitor 250 nM, listed as RN341, […]) was 80.9747%. For the same molecule, the remaining activity at […] ([5]; inhibitor 250 nM, read-out: nanoBRET response normalized to 0% (no tracer) and 100% (no inhibitor) control) was 78.7%, the “nanoBRET response normalized to 0% (no tracer) and 100% (no inhibitor) control” value ([5]; inhibitor 500 nM, listed as RN341, 0.5 µM) was 61.7006% and the remaining activity at 0.5 µM ([5]; inhibitor 500 nM, read-out: nanoBRET response normalized to 0% (no tracer) and 100% (no inhibitor) control) was 65.3%. The “nanoBRET response normalized to 0% (no tracer) and 100% (no inhibitor) control” value ([5]; inhibitor 2500 nM, listed as RN341, […]) was 73.4181% and the remaining activity at […] ([5]; inhibitor 2500 nM, read-out: nanoBRET response normalized to 0% (no tracer) and 100% (no inhibitor) control) was 71.9%.
